Earlier results in US20190078102A1, “BIOSYNTHETIC PRODUCTION OF STEVIOL GLYCOSIDES AND PROCESSES THEREFORE” (Conagen-Inc., priority 2017, published 2019).

Settings: background statement

For `C=C1C[C@@]23CC[C@H]4[C@@](C)(CCC[C@@]4(C)C(=O)O[C@@H]4O[C@H](CO)[C@@H](O)[C@H](O)[C@H]4O)[C@@H]2CC[C@]1(O[C@@H]1O[C@H](CO)[C@@H](O)[C@H](O)[C@H]1O[C@@H]1O[C@H](CO)[C@@H](O)[C@H](O)[C@H]1O)C3` [stevioside], the “times sweeter than sucrose” value is listed as 100-150 times.
